Reference: the NIST ThermoML archive (doi:10.1021/je100369a)

Columns and labels:
[1] = mn = molality of the nth substance listed, in mol/kg; conditions: 101 kPa, Liquid
[2] = 101.33 kPa, Liquid
[3] = refractive index (Na D-line) (dimensionless); conditions: 101.33 kPa, Liquid, Standard Abbe refractometry

Oc1ccccc1C=NCCN=Cc1ccccc1O [2,2'-[ethylenebis(nitrilomethylidyne)]diphenol] + CC(=O)N(C)C
mass density [kg/m3], [1]
Conditions | m1 = 0.0298 | m1 = 0.0503 | m1 = 0.0704 | m1 = 0.0902 | m1 = 0.11 | m1 = 0.13 | m1 = 0.151 | m1 = 0.1699 | m1 = 0.1898
288.15 K | 946.92 | 947.9 | 948.86 | 949.8 | 950.76 | 951.71 | 952.73 | 953.61 | 954.55
298.15 K | 937.72 | 938.72 | 939.69 | 940.66 | 941.6 | 942.56 | 943.57 | 944.49 | 945.43
308.15 K | 928.51 | 929.52 | 930.5 | 931.48 | 932.43 | 933.41 | 934.41 | 935.35 | 936.28
318.15 K | 919.27 | 920.29 | 921.29 | 922.28 | 923.25 | 924.23 | 925.25 | 926.19 | 927.14

Oc1ccccc1C=NCCN=Cc1ccccc1O [2,2'-[ethylenebis(nitrilomethylidyne)]diphenol] + CN(C)C=O
mass density [kg/m3], [1]
Conditions | m1 = 0.0302 | m1 = 0.049 | m1 = 0.0701 | m1 = 0.0913 | m1 = 0.1101 | m1 = 0.1238 | m1 = 0.1483 | m1 = 0.1702 | m1 = 0.1886
288.15 K | 954.99 | 955.87 | 956.86 | 957.85 | 958.72 | 959.36 | 960.5 | 961.48 | 962.35
298.15 K | 945.49 | 946.39 | 947.39 | 948.39 | 949.27 | 949.91 | 951.05 | 952.08 | 952.94
308.15 K | 935.97 | 936.88 | 937.89 | 938.9 | 939.79 | 940.44 | 941.6 | 942.63 | 943.48
318.15 K | 926.38 | 927.29 | 928.32 | 929.35 | 930.25 | 930.91 | 932.08 | 933.14 | 933.99

Oc1ccccc1C=NCCN=Cc1ccccc1O [2,2'-[ethylenebis(nitrilomethylidyne)]diphenol] + C[S+](C)[O-]
mass density [kg/m3], [1]
Conditions | m1 = 0.0098 | m1 = 0.03 | m1 = 0.0502 | m1 = 0.0697 | m1 = 0.0903 | m1 = 0.1097 | m1 = 0.13 | m1 = 0.1502 | m1 = 0.1701 | m1 = 0.1893
288.15 K | 1105.42 | 1105.67 | 1105.93 | 1106.18 | 1106.45 | 1106.71 | 1106.99 | 1107.28 | 1107.55 | 1107.81
298.15 K | 1095.42 | 1095.69 | 1095.96 | 1096.23 | 1096.52 | 1096.79 | 1097.08 | 1097.39 | 1097.66 | 1097.91
308.15 K | 1085.39 | 1085.68 | 1085.97 | 1086.26 | 1086.56 | 1086.85 | 1087.14 | 1087.45 | 1087.75 | 1088.03
318.15 K | 1075.36 | 1075.67 | 1075.98 | 1076.28 | 1076.6 | 1076.9 | 1077.22 | 1077.56 | 1077.84 | 1078.13

Oc1ccccc1C=NCCN=Cc1ccccc1O [2,2'-[ethylenebis(nitrilomethylidyne)]diphenol] + ClC(Cl)Cl
mass density [kg/m3], [1]
Conditions | m1 = 0.0099 | m1 = 0.03 | m1 = 0.0498 | m1 = 0.0702 | m1 = 0.0904 | m1 = 0.1102 | m1 = 0.1336 | m1 = 0.1501 | m1 = 0.19
283.15 K | 1495.46 | 1493.53 | 1491.63 | 1489.69 | 1487.79 | 1485.95 | 1483.73 | 1482.28 | 1478.69
288.15 K | 1486.15 | 1484.27 | 1482.44 | 1480.56 | 1478.71 | 1476.92 | 1474.75 | 1473.37 | 1469.85
293.15 K | 1476.77 | 1474.97 | 1473.19 | 1471.36 | 1469.56 | 1467.84 | 1465.71 | 1464.38 | 1460.93
298.15 K | 1467.41 | 1465.66 | 1463.95 | 1462.15 | 1460.41 | 1458.74 | 1456.68 | 1455.37 | 1452.05

Oc1ccccc1C=NCCN=Cc1ccccc1O [2,2'-[ethylenebis(nitrilomethylidyne)]diphenol] + ClCCl
mass density [kg/m3], [1]
Conditions | m1 = 0.0306 | m1 = 0.049 | m1 = 0.0703 | m1 = 0.0903 | m1 = 0.1103 | m1 = 0.1301 | m1 = 0.15 | m1 = 0.1702 | m1 = 0.1911
283.15 K | 1342.32 | 1341.5 | 1340.58 | 1339.65 | 1338.77 | 1337.88 | 1337.01 | 1336.07 | 1335.14
288.15 K | 1333.32 | 1332.54 | 1331.67 | 1330.82 | 1329.93 | 1329.12 | 1328.26 | 1327.34 | 1326.47
293.15 K | 1324.26 | 1323.56 | 1322.69 | 1321.91 | 1321.06 | 1320.31 | 1319.5 | 1318.65 | 1317.78
298.15 K | 1315.18 | 1314.5 | 1313.71 | 1312.95 | 1312.16 | 1311.43 | 1310.67 | 1309.84 | 1309.07

CC(=O)N(C)C [N,N-dimethylethanamide]
Conditions | mass density, 288.15 K [kg/m3] | mass density, 298.15 K [kg/m3] | mass density, 308.15 K [kg/m3] | mass density, 318.18 K [kg/m3] | refractive index, 288.15 K | refractive index, 298.15 K | refractive index, 308.15 K | refractive index, 318.18 K
[2] | 945.5 | 936.28 | 927.05 | 917.79 | – | – | – | –
[3] | – | – | – | – | 1.4382 | 1.4346 | 1.4312 | 1.426

ClCCl [dichloromethane]
Conditions | mass density, 283.15 K [kg/m3] | mass density, 288.15 K [kg/m3] | mass density, 293.15 K [kg/m3] | mass density, 298.15 K [kg/m3] | refractive index, 283.15 K | refractive index, 288.15 K | refractive index, 293.15 K | refractive index, 298.15 K
[2] | 1343.65 | 1334.57 | 1325.43 | 1316.27 | – | – | – | –
[3] | – | – | – | – | 1.4305 | 1.4276 | 1.4251 | 1.4219

C[S+](C)[O-] [dimethyl sulfoxide]
Conditions | mass density, 288.15 K [kg/m3] | mass density, 298.15 K [kg/m3] | mass density, 308.15 K [kg/m3] | mass density, 318.15 K [kg/m3] | refractive index, 288.15 K | refractive index, 298.15 K | refractive index, 308.15 K | refractive index, 318.15 K
[2] | 1105.3 | 1095.29 | 1085.25 | 1075.21 | – | – | – | –
[3] | – | – | – | – | 1.4793 | 1.4752 | 1.471 | 1.467

CN(C)C=O [dimethylformamide]
Conditions | mass density, 288.15 K [kg/m3] | mass density, 298.15 K [kg/m3] | mass density, 308.15 K [kg/m3] | mass density, 318.15 K [kg/m3] | refractive index, 288.15 K | refractive index, 298.15 K | refractive index, 308.15 K | refractive index, 318.15 K
[2] | 953.58 | 944.06 | 934.52 | 924.9 | – | – | – | –
[3] | – | – | – | – | 1.431 | 1.4276 | 1.423 | 1.418

ClC(Cl)Cl [trichloromethane]
Conditions | mass density, 283.15 K [kg/m3] | mass density, 288.15 K [kg/m3] | mass density, 293.15 K [kg/m3] | mass density, 298.15 K [kg/m3] | refractive index, 283.15 K | refractive index, 288.15 K | refractive index, 293.15 K | refractive index, 298.15 K
[2] | 1496.43 | 1487.09 | 1477.68 | 1468.28 | – | – | – | –
[3] | – | – | – | – | 1.45 | 1.4471 | 1.4439 | 1.442
